Literature values as cited in US20220000797A1, “CLEAR PROPOFOL INJECTION AND PREPARATION METHOD THEREFOR” ((BIKA BIOTECHNOLOGY (GUANGZHOU) CO., LTD), priority 2018, published 2022).
Like-named read-outs stand apart in the source and are kept apart here.

Compound: O=C([O-])O.[Na+] [sodium bicarbonate]
- injection pain (final concentration of sodium bicarbonate approaches 1.4%): can reduce injection pain
- injection pain (low concentration of sodium bicarbonate (0.25%)): cannot reduce injection pain
